Test results from patent US12319652B2, “Salts and solid forms of (R)-1-(5-methoxy-1H-indol-1-yl)-N,N-dimethylpropan-2-amine” (priority 2021, dated 2025).
Like-named read-outs stand apart in the source and are kept apart here.

Tests used:
[1] = Amorphous forms and thermal study (glass temperature Tg by DSC/TGA); type: physicochemical; conditions: for Glass temperatures (Tg): amorphous form
[2] = Solubility determinations in SIF buffers (FaSSIF, FeSSIF, FaSSGF); type: physicochemical; conditions: for Solubility in SIF buffers: FaSSIF, FeSSIF and FaSSGF, 37° C., 24 h, concentration tested 30 mg/ml
How it was run: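 Salt forms suspended at 30 mg/ml in FaSSIF, FeSSIF or FaSSGF at 37° C. for 24 h, pH kept in range with 1 M HCl or NaOH. Supernatants sampled at 1, 3, 6 and 24 h, centrifuged and quantified by HPLC as compound 1 free base against amorphous compound 1 calibrants; pellets checked by XRPD for form change.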

[3] = type: physicochemical; conditions: for Change of purity profile / CP: 10-day time point
Procedure: Equilibrium Humidity Evaluation (40° C./75% RH for 10 Days)
100 mg portions of compound 1 salts (for inputs see table below) were placed in the relevant open vials. The powders were finely divided and distributed evenly over the base of the vial, such that equal material coverage across the panel was observed. These samples were then maintained 40°C. under 75% RH. The samples were sub-sampled at intervals of 5 and 10 days and analysed by ^1H NMR, HPLC, XRPD, DSC, TGA and PLM, for evidence of phase change or chemical degradation (FIG. 269-297).

[4] = Dynamic vapor sorption (DVS); type: physicochemical; conditions: for DVS isotherm type / hygroscopicity: 0 to 90 to 0% RH; for DVS weight gain at 70% RH: 70% RH (printed 70° RH in Example 8); for DVS desorption behaviour (hysteresis): during desorption
How it was run: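 At 25 °C, 20 to 50 mg sample was dried at 0% RH for 60 minutes, then humidity raised 0-30% in 5% steps and 30-90% in 10% steps, with matching desorption back to 0%. Equilibrium set at dm/dt 0.002%/min; amorphous material was run with fixed 1 hour steps.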

[5] = Amorphisation activity: Antisolvent/N2 flow, 50 mg
[6] = Amorphisation activity: Freeze dry, 50 mg
[7] = Amorphisation activity: HFIPA Evaporation o/n, 50 mg
[8] = Amorphisation activity: HFIPA Evaporation, 50 mg

COc1ccc2c(ccn2C[C@@H](C)N(C)C)c1.Cl [Compound 1 HCl]
Form by XRPD [1, 5]: Form A
Outcome [1, 5]: Crystalline
Form by XRPD [1, 6]: Form A
Outcome [1, 6]: Crystalline
Form by XRPD [1, 7]: Form A
Outcome [1, 7]: Crystalline
Form by XRPD [1, 8]: Form A
Outcome [1, 8]: Crystalline
Outcome ([1]; Hot plate heat-up, 20 to 236 ° C.): Form A
Outcome ([1]; Hot stage plate heat-up, 20 to 260 ° C.): Amorphous
Outcome ([1]; Hot stage plate heat-up, 20 to 275 ° C.): Amorphous
Outcome ([1]; Open Pan DSC, 20 to 220 to −20, O/N 20 to 250 ° C.): Amorphous
Outcome ([1]; Sealed DSC, 20 to 220 to −20 to 250 ° C.): Amorphous
Outcome ([1]; TGA, 20 to 220 to −20 to 250 ° C.): Amorphous
Glass temperatures (Tg) [1]: 37 °C
Disproportionation in SIF buffers [2]: disproportionation not observed
Solubility in SIF buffers ([2]; listed as HC): freely soluble
Solubility in SIF buffers ([2]; listed as compound 1·HCl): Freely soluble
Change of purity profile / CP ([3]; 40° C./75% RH): no reduction in CP
Change of purity profile / CP ([3]; 40° C./75% RH, listed as compound 1·HCl): little changed
CP ([3]; 40° C./75% RH, over 10 days): 99.60 % area
Stability at 40° C./75% RH ([3]; 10 days, listed as compound 1·HCl): Chemically and physically stable
DVS isotherm type / hygroscopicity [4]: slightly hygroscopic isotherm
DVS isotherm type / hygroscopicity ([4]; listed as Compound 1·HCl): slightly hygroscopic isotherm
DVS isotherm type / hygroscopicity ([4]; listed as compound 1·HCl): slightly hygroscopic
DVS weight gain at 70% RH [4]: ca. 0.2 % w/w
DVS mono and multilayer sorption >80% RH ([4]; >80% RH): ca. 0.5 % w.w
DVS desorption behaviour (hysteresis) [4]: small water affinity hysteresis
DVS desorption behaviour (hysteresis) ([4]; listed as Compound 1·HCl): small water affinity hysteresis

COc1ccc2c(ccn2C[C@@H](C)[NH+](C)C)c1.O=C(O)/C=C/C(=O)O [Compound 1 fumarate, (R)-1-(5-methoxy-1H-indol-1-yl)-N,N-dimethylpropan-2-amine fumarate]
Form by XRPD [1, 5]: Amorphous
Outcome [1, 5]: Gum
Form by XRPD [1, 6]: Form A
Outcome [1, 6]: Crystalline
Outcome ([1]; Amorphisation activity: Rotary Vac (Methanol), 50 mg): Gum
Outcome ([1]; Hot plate heat-up, 20 to 165 ° C.): Amorphous
Outcome ([1]; Hot stage plate heat-up, 20 to 165 ° C.): Amorphous
Outcome ([1]; Open Pan DSC, 20 to 145 to −20, O/N 20 to 230 ° C.): Amorphous
Outcome ([1]; Sealed DSC, 20 to 145 to −20 to 230 ° C.): Amorphous
Outcome ([1]; TGA, 20 to 145 to −20 to 230 ° C.): Amorphous
Glass temperatures (Tg) [1]: 24 °C
Solubility in SIF buffers [2]: freely soluble
Change of purity profile / CP ([3]; 40° C./75% RH): reduction in CP
HPLC peak RRT 0.93 ([3]; salt before storage (t = 0)): 0.36
HPLC peak RRT 1.00 (reference peak) ([3]; salt before storage (t = 0)): 98.38
HPLC peak RRT 1.11 ([3]; salt before storage (t = 0)): 0.79
HPLC peak RRT 1.15 ([3]; salt before storage (t = 0)): 0.27
HPLC peak RRT 1.17 ([3]; salt before storage (t = 0)): 0.13
HPLC peak RRT 1.19 ([3]; salt before storage (t = 0)): 0.08
HPLC peak RRT 0.93 ([3]; t = 5 d at 75% RH at 40° C.): 0.64
HPLC peak RRT 0.98 ([3]; t = 5 d at 75% RH at 40° C.): 0.05
HPLC peak RRT 1.00 (reference peak) ([3]; t = 5 d at 75% RH at 40° C.): 96.82
HPLC peak RRT 1.08 ([3]; t = 5 d at 75% RH at 40° C.): 0.05
HPLC peak RRT 1.11 ([3]; t = 5 d at 75% RH at 40° C.): 1.06
HPLC peak RRT 1.15 ([3]; t = 5 d at 75% RH at 40° C.): 0.60
HPLC peak RRT 1.17 ([3]; t = 5 d at 75% RH at 40° C.): 0.02
HPLC peak RRT 1.18 ([3]; t = 5 d at 75% RH at 40° C.): 0.27
HPLC peak RRT 1.20 ([3]; t = 5 d at 75% RH at 40° C.): 0.20
HPLC peak RRT 1.27 ([3]; t = 5 d at 75% RH at 40° C.): 0.05
HPLC peak RRT 1.28 ([3]; t = 5 d at 75% RH at 40° C.): 0.03
HPLC peak RRT 1.39 ([3]; t = 5 d at 75% RH at 40° C.): 0.10
HPLC peak RRT 1.43 ([3]; t = 5 d at 75% RH at 40° C.): 0.06
HPLC peak RRT 1.47 ([3]; t = 5 d at 75% RH at 40° C.): 0.06
HPLC peak RRT 0.93 ([3]; t = 10 d at 75% RH at 40° C.): 0.61
HPLC peak RRT 0.98 ([3]; t = 10 d at 75% RH at 40° C.): 0.07
HPLC peak RRT 1.00 (reference peak) ([3]; t = 10 d at 75% RH at 40° C.): 97.08
HPLC peak RRT 1.08 ([3]; t = 10 d at 75% RH at 40° C.): 0.04
HPLC peak RRT 1.11 ([3]; t = 10 d at 75% RH at 40° C.): 0.96
HPLC peak RRT 1.13 ([3]; t = 10 d at 75% RH at 40° C.): 0.05
HPLC peak RRT 1.15 ([3]; t = 10 d at 75% RH at 40° C.): 0.52
HPLC peak RRT 1.18 ([3]; t = 10 d at 75% RH at 40° C.): 0.09
HPLC peak RRT 1.19 ([3]; t = 10 d at 75% RH at 40° C.): 0.12
HPLC peak RRT 1.20 ([3]; t = 10 d at 75% RH at 40° C.): 0.15
HPLC peak RRT 1.27 ([3]; t = 10 d at 75% RH at 40° C.): 0.03
HPLC peak RRT 1.28 ([3]; t = 10 d at 75% RH at 40° C.): 0.05
HPLC peak RRT 1.34 ([3]; t = 10 d at 75% RH at 40° C.): 0.04
HPLC peak RRT 1.39 ([3]; t = 10 d at 75% RH at 40° C.): 0.08
HPLC peak RRT 1.43 ([3]; t = 10 d at 75% RH at 40° C.): 0.04
HPLC peak RRT 1.45 ([3]; t = 10 d at 75% RH at 40° C.): 0.03
HPLC peak RRT 1.47 ([3]; t = 10 d at 75% RH at 40° C.): 0.05
RH above which pronounced mono, multilayer sorption and probable deliquescence occurred [4]: > 80 % RH
DVS isotherm type / hygroscopicity ([4]; listed as Compound 1·Fumarate, fumarate): deliquescent type isotherm
DVS isotherm type / hygroscopicity ([4]; listed as compound 1·Fumarate, fumarate): deliquescent
DVS weight gain at 70% RH [4]: ca. 1 % w/w
